Source: patent publication US20120289452A1, “COMPOSITIONS AND METHODS FOR TREATING AND PREVENTING NECROSIS” (Ilana Nathan, priority 2002, published 2012)
Residues, ends and D or L forms follow the SMILES beside them. *: point of attachment. MeOSuc = COC(=O)CCC(=O)*; CH2Cl = ClC*

Experiments:
[1] = system: PC-12 cells; assay: STS plus oligomycin-induced necrosis in PC-12 cells, morphological quantification; type: cell-based, rat
Description: (§1) The rat pheochromocytoma PC-12 cell line was propagated in DMEM medium (Gibco, BRL), supplemented with 5% heat-inactivated calf serum, 10% heat-inactivated horse serum, and 2 mM L-glutamine. […]. Then the cells were washed twice and maintained in glucose-free RPMI-1640 medium (Beit Haemek, Israel), and supplemented with 2 mM pyruvate and 10% dialyzed FCS for one hour. U-937 and PC-12 cells were incubated with and without 1 μM oligomycin (Sigma) for 45 min, and cells were treated with or without 1.25 μM staurosporine (STS) (Sigma) for an additional seven hours in U-937 cells or five hours in PC-12 cells. Alternatively, cells were treated with or without 100 ng/ml anti-Fas (Upstate biotechnology, USA) for the same time period.
[…] The inhibitor was dissolved in DMSO to a concentration of 100 mM. The final concentration of DMSO in the system was 0.2%, and was added to all treatments. In separate experiments, 200 μM of an elastase inhibitor (CE1037, manufactured by Cortech Inc.) was administered 30 min before addition of the inducers. The inhibitor was dissolved in PBS.
(§2) Cells undergoing morphological changes associated with apoptotic or necrotic cell death were monitored as described by McGahon et al. [Methods Cell Biol, 46: p. 153-85 (1995)]. Briefly, 1 ml of the cells was collected and centrifuged. The pellet was resuspended in a 20-fold dilution of the dye mixture (composed of 100 μg/ml acridine orange and 100 μg/ml ethidium bromide in PBS), placed on a glass slide and viewed on an inverted fluorescence microscope. A minimum of 200 cells was scored for each sample.

[2] = system: U-937 cells; assay: Anti-Fas-induced apoptosis/necrosis in U-937 cells, morphological quantification (acridine orange/ethidium bromide); type: cell-based, Human; settings: for effect on anti-Fas-induced apoptotic and necrotic cell death: anti-Fas with or without oligomycin, inhibitor added
Description: (§3) Human promonocytic U-937 cells in logarithmic phase were seeded at a concentration of 4×10^5/ml. Afterwards the cells were washed twice and seeded again in glucose-free RPMI-1640 medium (Beit Haemek, Israel) supplemented with 2 mM pyruvate (Beit Haemek, Israel) and 10% dialyzed FCS (Gibco, BRL) for one hour.
as §1
(§4) 200 μM elastase inhibitor III (MeOSuc-Ala-Ala-Pro-Val-CMK from Calbiochem) when added was administered 30 min before addition of the inducers. The inhibitor was dissolved in DMSO to a concentration of 100 mM. The final concentration of DMSO in the system was 0.2%, and was added to all treatments. In separate experiments, 200 μM of an elastase inhibitor (CE1037, manufactured by Cortech Inc.) was administered 30 min before addition of the inducers. The inhibitor was dissolved in PBS.
as §2

[3] = system: PC-12 cells; assay: STS-induced apoptosis in PC-12 cells, morphological quantification; type: cell-based, rat
Description: as §1, §4, §2

[4] = system: elastase-like activity; assay: Gelatin substrate gel electrophoresis of lysates of U-937 cells treated with KCN and elastase inhibitor; type: cell-based, Human; settings: 5 mM KCN, 200 μM elastase inhibitor, 3 h
[5] = system: PC-12 cells; assay: KCN-induced necrosis in PC-12 cells, morphological quantification; type: cell-based, rat
Description: The rat pheochromocytoma PC-12 cell line was propagated in DMEM medium (Gibco, BRL), supplemented with 5% heat-inactivated calf serum, 10% heat-inactivated horse serum, and 2 mM L-glutamine. PC-12 cells in logarithmic phase were seeded at a concentration of 1.2×10^5/well in 24-well plates (Cellstar). Then the cells were washed twice and maintained in glucose-free RPMI-1640 medium (Beit Haemek, Israel), and supplemented with 2 mM pyruvate and 10% dialyzed FCS for one hour. […] Alternatively, cells were treated with or without 100 ng/ml anti-Fas (Upstate biotechnology, USA) for the same time period. U-937 and PC-12 cells cultured in complete RPMI-1640 medium were washed and seeded in glucose-free RPMI-1640 medium, as described above, and treated with or without 0.5 mM KCN (Merck, Germany) for seven hours with U-937 cells, or for five hours with PC-12 cells. […] Cells undergoing morphological changes associated with apoptotic or necrotic cell death were monitored as described by McGahon et al. [Methods Cell Biol, 46: p. […] The pellet was resuspended in a 20-fold dilution of the dye mixture (composed of 100 μg/ml acridine orange and 100 μg/ml ethidium bromide in PBS), placed on a glass slide and viewed on an inverted fluorescence microscope. A minimum of 200 cells was scored for each sample.

[6] = system: U-937 cells; assay: STS plus oligomycin-induced cell killing in U-937 cells, trypan blue exclusion; type: cell-based, Human
Description: as §3, §1
200 μM elastase inhibitor III (MeOSuc-Ala-Ala-Pro-Val-CMK from Calbiochem) when added was administered 30 min before addition of the inducers. […]
At each time point, cell viability was determined by the trypan blue exclusion method (Daniel C P, Parreira A., et al. Leukemia Res. 11:191-196 (1987). Assays were performed in duplicate.

[7] = system: elastase-like activity; assay: Gelatin substrate gel electrophoresis of U-937 cell lysates, gel incubated with protease inhibitors; type: biochemical, Human; settings: 100 μM inhibitor in gel incubation
[8] = system: U-937 cells; settings: elastase inhibitor III without KCN
[9] = 1.25 μM STS with 1 μM oligomycin, 100 μM elastase inhibitor
[10] = lysate of U-937 cells treated with 0.5 mM KCN for 3 h
[11] = lysate of U-937 cells treated with anti-Fas and oligomycin for 3 h

CC(C)(CS(=O)(=O)c1ccc(OC(=O)C(C)(C)c2ccc(C(C)(C)C(=O)Oc3ccc(S(=O)(=O)CC(C)(C)C(=O)O)cc3)cc2)cc1)C(=O)O [CE1037]
necrotic cell death [1, 9]: 9%
necrotic cell death shifted to apoptotic cell death [1, 9]: 39%
effect on necrosis induced by STS ([1]; 1.25 μM STS with 1 μM oligomycin, 200 μM elastase inhibitor): completely abrogated necrosis
effect of inhibitor by itself ([1]; 200 μM elastase inhibitor alone): inactive by itself
effect on anti-Fas-induced apoptotic and necrotic cell death [2]: completely abrogated apoptotic as well as necrotic cell death
effect on apoptosis induced by STS ([3]; 1.25 μM STS, 200 μM elastase inhibitor): significantly inhibited apoptosis
effect of inhibitor by itself ([3]; 200 μM elastase inhibitor without STS): inactive by itself
band of protease activity when KCN administered with inhibitor [4]: disappeared
effect of inhibitor by itself ([5]; 200 μM inhibitor without KCN): inactive by itself
effect on necrosis induced by KCN ([5]; 0.5 mM KCN, 200 μM inhibitor): significantly inhibited necrosis
effect of inhibitor by itself on cell survival ([6]; 48 hours, inhibitor alone): slight effect by itself
effect on cell killing induced by STS and oligomycin (cell viability, trypan blue) ([6]; prolonged incubation of 48 hours): significantly inhibited cell killing

CC[C@H]1/C=C/C=C/C[C@@H](C)[C@H](O)[C@@](C)(O)C(=O)[C@@H](C)[C@H](O)[C@@H](C)C(=O)[C@@H](C)[C@H](O)[C@@H](C)/C=C/C(=O)O[C@@H]2[C@H](C)[C@H](CC1)O[C@]1(CC[C@H](C)[C@H](C[C@@H](C)O)O1)[C@H]2C [Oligomycin, oligomycin]
effect of oligomycin by itself on cell death ([1]; oligomycin alone): inactive by itself
effect of oligomycin by itself on cell death ([2]; 1 μM oligomycin alone): inactive by itself

CN[C@@H]1C[C@H]2O[C@@](C)([C@@H]1OC)n1c3ccccc3c3c4c(c5c6ccccc6n2c5c31)C(=O)NC4 [STS, staurosporine]
necrosis ([1]; 1.25 μM STS with 1 μM oligomycin): about 70%
apoptosis ([3]; 1.25 μM STS alone, compared to control): about 73%

Cc1ccc(S(=O)(=O)N[C@@H](Cc2ccccc2)C(=O)CCl)cc1 [TPCK]
band of protease activity in presence of inhibitor [7, 10]: not
band of protease activity in presence of inhibitor [7, 11]: not

COC(=O)CCC(=O)N[C@@H](C)C(=O)N[C@@H](C)C(=O)N1CCC[C@H]1C(=O)N[C@H](C(=O)CCl)C(C)C [elastase inhibitor III, MeOSuc-Ala-Ala-Pro-Val-CMK] (MeOSuc-AAPV-CH2Cl)
cell damage by inhibitor alone [8]: did not cause any cell damage

CC(C)C[C@H](NC(=O)N[C@H](C(=O)N[C@@H](CCC(N)=O)C(=O)N[C@@H](C)C=O)[C@@H]1CCNC(=N)N1)C(=O)O [elastinal]
effect on anti-Fas-induced apoptotic and necrotic cell death [2]: had no effect
band of protease activity in presence of inhibitor [7, 10]: disappeared
band of protease activity in presence of inhibitor [7, 11]: disappeared
